From patent US9914722B2, “Compounds for treating spinal muscular atrophy” (PTC Therapeutics Inc., priority 2012, dated 2018) come the findings set out here.

“Also recorded” adds a separate entry of the source.

Assay [1] relates to SMN2 full length and Δ7 mRNA. Put plainly: Endogenous SMN2 mRNA end-point semi-quantitative RT-PCR splicing assay in cultured cells. To be noted: 24 hr, FIG. 5; for SMN2 FL mRNA (gel band) / SMN2 Δ7 mRNA (gel band): GM03813 Type 1 SMA patient fibroblasts, increasing concentrations; for SMN2 alternative splicing: Type 1 SMA patient fibroblasts, rising concentrations. Format: cell-based, human. As for the experimental part:
Endogenous SMN2 mRNA End-Point Semi-Quantitative RT-PCR Splicing Assay in Cultured Cells
The endpoint reverse transcription-PCR splicing assay is used to visualize and quantify the levels of the SMN2 full length and Δ7 mRNA in primary cells and cell lines containing the SMN2 gene treated with a test compound.
Protocol. GM03813 SMA patient cells (5,000 cells/well) are seeded in 200 μL of cell culture medium (DMEM plus 10% FBS) in 96-well flat-bottom plates and the plate is immediately swirled to ensure proper dispersal of cells, forming an even monolayer of cells. Cells are allowed to attach for at least 4-6 hrs. Test compounds are serially diluted 3.16-fold in 100% DMSO to generate a 7-point concentration curve. A solution of test compound (1 μL, 200× in DMSO) is added to each test well and 1 μL DMSO is added to each control well. The plate is incu bated for 24 hrs in a cell culture incubator (37° C., 5% CO2, 100% relative humidity). The cells are then lysed in Cells-To-Ct lysis buffer and the lysate is stored at −80° C.
SMN FL and Δ7 mRNA are identified using the following primers in Table 6. These primers hybridize to a nucleotide sequence in exon 6 (SMN Forward C, SEQ ID NO. 11) (nucleotide 43 to nucleotide 63) and exon 8 (SMN Reverse C, SEQ ID NO. 12) (nucleotide 51 to nucleotide 73) common to human SMN1 and SMN2 mRNA. Since the SMA patient cells used in Example 4 contain only the SMN2 gene, RT-PCR can visualize and quantify only SMN2 full-length and SMN2 Δ7 mRNA.
(§1) To synthesize cDNA, 5 μL of lysate, 4 μL of 5× iScript reaction mix, 1 μL of reverse transcriptase, and 10 μL of water are combined and incubated 5 min at 25° C. followed by 30 min at 42° C., followed by 5 min at 85° C. The cDNA solution is stored at −20° C.
To perform endpoint PCR, 5 μL of cDNA, 0.2 μL of 100 μM forward primer, 0.2 μL of 100 μM reverse primer, and 22.5 μL of polymerase super mix are combined in a 96 well semiskirted PCR plate. PCR is carried out at the following temperatures for the indicated time: Step 1: 94° C. (2 min), Step 2: 94° C. (30 sec), Step 3: 55° C. (30 sec), Step 4: 68° C. (1 min), then repeat Steps 2 to 4 for a total of 33 cycles, then hold at 4° C.
10 μL of each PCR sample is electrophoretically separated on a 2% agarose E-gel for 14 minutes stained with double-stranded DNA (dsDNA) staining reagents (e.g., ethidium bromide) and visualized using a gel imager.

The test system of assay [2] is human SMN1 minigene full length and Δ7 mRNA (SMN1-A minigene). Put plainly: Human SMN1 minigene mRNA end-point semi-quantitative RT-PCR splicing assay in cultured cells. The class given is cell-based. To be noted: HEK293H cells transfected with SMN1-A minigene, 7 hour, increasing concentrations, FIG. 8.
Text: Human SMN1 Minigene mRNA End-Point Semi-Quantitative RT-PCR Splicing Assay in Cultured Cells
The RT-PCR assay is used to visualize and quantify the levels of the human SMN1 minigene full length and Δ7 mRNA in primary cells and cell lines expressing the human SMN1 minigene construct treated with a test compound.
Using the procedure for the preparation of the SMN2 minigene construct described in Biological Example 1, the SMN1 version of the minigene is generated by replacing the sixth nucleotide of exon 7 (a thymine residue) of the SMN2-A minigene construct to cytosine using site-directed mutagenesis. Thus, similar to the SMN2-A minigene construct, the SMN1 minigene construct has a single adenine residue inserted after nucleic residue 48 of exon 7. The SMN1 minigene construct is referred to as SMN1-A.
Protocol. HEK293H cells (10,000 cells/well/199 μL) were transfected, using FuGENE-6 reagent, in a 96-well plate with 15 ng of the SMN1-A minigene reporter plasmid per well. Cells were incubated for 24 hours following transfection. Test compounds were serially diluted 3.16-fold in 100% DMSO to generate a 7-point concentration curve. A solution of test compound (1 μL, 200× in DMSO) was added to each test well. 1 μL DMSO was added to each control well. The plate was incubated for 7 hours in a cell culture incubator (37° C., 5% CO2, 100% relative humidity). The cells were then lysed in Cells-To-Ct lysis buffer and the lysates were stored at −80° C.
Two SMN spliced mRNA are generated from the SMN1 minigene. The term “SMN1 minigene FL” refers to the first spliced product containing exon 7, corresponding to full length SMN1 mRNA. The term “SMN1 minigene Δ7” refers to the second product lacking exon 7.
SMN1 minigene FL and SMN1 minigene Δ7 mRNA are amplified using the primers in Table 11. Primer SMN Forward C (SEQ ID NO. 11) hybridizes to a nucleotide sequence in exon 6 (nucleotide 43 to nucleotide 63), primer SMN Reverse A (SEQ ID NO. 2) hybridizes to a nucleotide sequence in the coding sequence of Firefly luciferase. The combination of these two oligonucleotides detects only SMN1 or SMN2 minigenes (RT-PCR) and will not detect endogenous SMN1 or SMN2 genes. Since the HEK293H cells used in Example 16 were transfected with only the human SMN1 minigene, RT-PCR can visualize and quantify only SMN1 minigene FL and SMN1 minigene Δ7 mRNA.
as §1
To perform endpoint PCR, 5 μL of cDNA, 0.2 μL of 100 μM forward primer, 0.2 μL of 100 μM reverse primer, and 22.5 μL of polymerase super mix are combined in a 96 well semiskirted PCR plate. […]

As to `C[C@@H]1CN(c2ccc3oc(-c4cn5ccccc5n4)cc(=O)c3c2)C[C@H](C)N1` [Cpd 17, 6-[(3R,5S)-3,5-dimethylpiperazin-1-yl]-2-(imidazo[1,2-a]pyridin-2-yl)-4H-chromen-4-one], in assay [1], the “SMN2 FL mRNA (gel band)” value is on record as “progressively more SMN2 FL mRNA”, the “SMN2 Δ7 mRNA (gel band)” value was “less SMN2 Δ7 mRNA” and the SMN2 alternative splicing result was “correction of SMN2 alternative splicing”. In addition, in assay [2], the “SMN1 minigene FL mRNA (gel band)” value was “progressively more SMN1 minigene FL mRNA; also recorded: dose dependent increase in SMN1 minigene full-length mRNA” and the “SMN1 minigene Δ7 mRNA (gel band)” value is reported as “less SMN1 minigene Δ7 mRNA; also recorded: dose dependent decrease in SMN1 minigene Δ7 mRNA”.

For the compound `COc1ccc(-c2cc(=O)c3cc(N4CCN[C@@H](C)C4)ccc3o2)cc1F` [Cpd 38, 2-(3-fluoro-4-methoxyphenyl)-6-[(3S)-3-methylpiperazin-1-yl]-4H-chromen-4-one], in assay [1], the “SMN2 FL mRNA (gel band)” value is listed as “progressively more SMN2 FL mRNA”, the “SMN2 Δ7 mRNA (gel band)” value is recorded as “less SMN2 Δ7 mRNA” and the SMN2 alternative splicing result was “correction of SMN2 alternative splicing”. In addition, in assay [2], the “SMN1 minigene FL mRNA (gel band)” value is “progressively more SMN1 minigene FL mRNA; also recorded: dose dependent increase in SMN1 minigene full-length mRNA” and the “SMN1 minigene Δ7 mRNA (gel band)” value is on record as “less SMN1 minigene Δ7 mRNA; also recorded: dose dependent decrease in SMN1 minigene Δ7 mRNA”.
